The source of these data is patent US9156834B2, “Derivatives of heteroarylsulfonamides, their preparation and their application in human therapy” (PIERRE FABRE MEDICAMENT, priority 2010, dated 2015).

Molecules are shown by their SMILES. Counter-ions that a name gives are not always drawn.

Data set [1] concerns the target T1, human isoform of the Kv1.5 channels (Homo sapiens, UniProt P22460).
T1 construct: expressed in transfected cells; host or cells: HEK293
The data set is described as follows: FLIPR thallium ion measurement on potassium channel Kv1.5. Type of data set: cell-based. The settings on record: HEK293 cells stably transfected with hKv1.5; compound 10 μM, 15 min at 37° C.; fluorescence normalised with 10 μM DPO. Here is the method: The pharmacological evaluation of the compounds on potassium channel Kv1.5 was undertaken using a 96-well plate and FLIPR technology by thallium ion measurement. The HEK293 cells, transfected in a stable manner with the human isoform of the Kv1.5 channels, are seeded 24 h before the experiment in 96-well plates ([…], 200 μl/well) with polylysine applied in the following culture medium: DMEM, 10% SVF, Penicillin/Streptomycin, G418 as the selection antibiotic.
The FLIPR experiment is undertaken using “FLIPR Potassium Ion Channel Assay Kit”, as indicated by the manufacturer (Molecular Devices).
Briefly, the culture medium is replaced by the solution containing the thallium marker for 90 min at 37° C. On conclusion of this step the compounds for testing are added to a final concentration of 10 μM in the well for 15 min at 37° C. The basic fluorescence is then read for 60 sec. The addition of depolarising medium (20 mM of potassium and 3 mM of final thallium) opens the potassium channels and causes an increase of the fluorescence of the thallium fluorophore corresponding to an influx of thallium ions through the hKv1.5 channels. The measurement is made 30 sec after the injection of the depolarising solution. The application of 10 μM DPO (Tocris, blocker of the Kv1.5 channels) enables the fluorescence to be normalised.

T1 sequence (P22460 whole entry, canonical isoform): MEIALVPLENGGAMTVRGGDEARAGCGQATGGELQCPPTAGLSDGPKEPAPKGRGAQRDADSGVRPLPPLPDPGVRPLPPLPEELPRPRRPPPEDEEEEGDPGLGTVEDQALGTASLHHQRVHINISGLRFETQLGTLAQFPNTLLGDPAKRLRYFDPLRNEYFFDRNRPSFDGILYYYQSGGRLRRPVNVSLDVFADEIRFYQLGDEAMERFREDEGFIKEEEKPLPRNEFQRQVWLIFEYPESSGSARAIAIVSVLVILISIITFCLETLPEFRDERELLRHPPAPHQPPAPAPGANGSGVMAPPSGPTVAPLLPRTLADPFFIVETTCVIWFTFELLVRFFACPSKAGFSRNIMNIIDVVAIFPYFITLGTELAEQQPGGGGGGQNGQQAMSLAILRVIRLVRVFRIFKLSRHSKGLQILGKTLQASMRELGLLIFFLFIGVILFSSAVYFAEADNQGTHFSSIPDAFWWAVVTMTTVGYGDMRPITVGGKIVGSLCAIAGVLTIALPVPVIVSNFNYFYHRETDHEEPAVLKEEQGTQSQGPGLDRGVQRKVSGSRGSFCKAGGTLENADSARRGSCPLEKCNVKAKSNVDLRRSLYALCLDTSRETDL

Compound `Cc1cccc(S(=O)(=O)Nc2ccccc2C(=O)N2CCN(c3nc4ccc(Br)cc4s3)CC2)n1` (as salt: hydrochloride) [Example 9, N-(2-(4-(6-bromobenzo[d]thiazol-2-yl)piperazine-1-carbonyl)phenyl)-6-methylpyridine-2-sulfonamide dihydrochloride] returned a melting point of 180 °C. For `O=C(c1ccccc1NS(=O)(=O)c1ccccn1)N1CCN(c2nc3ccc(Br)cc3s2)CC1` [Example 3, N-(2-(4-(6-bromobenzo[d]thiazol-2-yl)piperazine-1-carbonyl)phenyl)-pyridine-2-sulfonamide], the melting point worked out at 102 °C. Further, the “% inhibition at 10 μM” value in data set [1] was determined as 100%.
